The values below come from patent publication US9315467B2, “Compounds for nonsense suppression, and methods for their use” (priority 2004, dated 2016).

Broadly, the melting point is the temperature of the solid-liquid transition.

Bounds are passed on as bounds.

`Cc1ccc(-c2cc(-c3cccc(C(=O)O)c3)ncn2)cc1` [Compound 3, 3-(6-p-Tolyl-pyrimidin-4-yl)-benzoic acid] registered a melting point of 201 to 203 °C.
As for `CC(C)c1ccc(-c2nccc(-c3cccc(C(N)=O)c3)n2)cc1` [Compound 4, 3-[2-(4-Isopropyl-phenyl)-pyrimidin-4-yl]-benzamide], the melting point fell in the range of 167 to 169 °C.
The same measure for `Cc1ccc(-c2nccc(-c3ccc(C(=O)O)cc3)n2)cc1` [Compound 10, 4-(2-p-Tolyl-pyrimidin-4-yl)-benzoic acid]: above 310 °C; for `Cc1ccc(-c2cc(-c3ccc(C(=O)O)cc3)ccn2)cc1` [Compound 12, 4-(2-p-Tolyl-pyridin-4-yl)-benzoic acid]: 286 to 289 °C; for `Cc1ccc(-c2ccnc(-c3ccc(C(=O)O)cc3)c2)cc1` [Compound 13, 4-(4-p-Tolyl-pyridin-2-yl)-benzoic acid]: 288 to 291 °C.
The same measure for `Cc1ccc(-c2cccc(-c3ccc(C(=O)O)cc3)n2)cc1` [Compound 14, 4-(6-p-Tolyl-pyridin-2-yl)-benzoic acid]: 283 to 284 °C.
The same measure for `Cc1ccc(-c2cncc(-c3ccc(C(=O)O)cc3)c2)cc1` [Compound 15, 4-(5-p-Tolyl-pyridin-3-yl)-benzoic acid]: 260 to 262 °C; for `COc1cccc(-c2nccc(-c3ccc(C(=O)O)cc3)n2)c1` [Compound 16, 4-[2-(3-Methoxy-phenyl)-pyrimidin-4-yl]-benzoic acid]: 270 to 273 °C.
Turning to `CC(C)(C)c1ccc(-c2nccc(-c3ccc(C(=O)O)cc3)n2)cc1` [Compound 17, 4-[2-(4-tert-Butyl-phenyl)-pyrimidin-4-yl]-benzoic acid], the melting point lay in the range of 293 to 296 °C.
The same measure for `O=C(O)c1ccc(-c2ccnc(-c3ccc(F)cc3)n2)cc1` [Compound 18, 4-[2-(4-Fluoro-phenyl)-pyrimidin-4-yl]-benzoic acid]: above 300 °C; for `O=C(O)c1ccc(-c2ccnc(-c3cccc(OC(F)(F)F)c3)n2)cc1` [Compound 19, 4-[2-(3-Trifluoromethoxy-phenyl)-pyrimidin-4-yl]-benzoic acid]: above 300 °C.
The same measure for `O=C(O)c1ccc(-c2ccnc(-c3cccc(Cl)c3)n2)cc1` [Compound 20, 4-[2-(3-Chloro-phenyl)-pyrimidin-4-yl]-benzoic acid]: 291 to 294 °C; for `O=C(O)c1ccc(-c2ccnc(-c3ccc(C(F)(F)F)cc3)n2)cc1` [Compound 21, 4-[2-(4-Trifluoromethyl-phenyl)-pyrimidin-4-yl]-benzoic acid]: above 300 °C; for `O=C(O)c1ccc(-c2ccnc(-c3ccc(Cl)cc3)n2)cc1` [Compound 22, 4-[2-(4-Chloro-phenyl)-pyrimidin-4-yl]-benzoic acid]: above 300 °C.
The same measure for `O=C(O)c1ccc(-c2ccnc(-c3ccccc3F)n2)cc1` [Compound 23, 4-[2-(2-Fluoro-phenyl)-pyrimidin-4-yl]-benzoic acid]: above 300 °C; for `O=C(O)c1ccc(-c2ccnc(-c3cccc(F)c3)n2)cc1` [Compound 25, 4-[2-(3-Fluoro-phenyl)-pyrimidin-4-yl]-benzoic acid]: 300 to 303 °C.
Compound `Cc1ccccc1-c1nccc(-c2ccc(C(=O)O)cc2)n1` [Compound 26, 4-(2-o-Tolyl-pyrimidin-4-yl)-benzoic acid] yielded a melting point of 198 to 200 °C.
The same measure for `O=C(O)c1ccc(-c2ccnc(-c3ccc(OC(F)(F)F)cc3)n2)cc1` [Compound 27, 4-[2-(4-Trifluoromethoxy-phenyl)-pyrimidin-4-yl]-benzoic acid]: 299 to 302 °C; for `O=C(O)c1ccc(-c2ccnc(-c3ccccc3)n2)cc1` [Compound 28, 4-(2-Phenyl-pyrimidin-4-yl)-benzoic acid]: above 300 °C; for `COc1ccc(-c2nccc(-c3ccc(C(=O)O)cc3)n2)cc1` [Compound 30, 4-[2-(4-Methoxy-phenyl)-pyrimidin-4-yl]-benzoic acid]: above 300 °C.
For `O=C(O)c1ccc(-c2ccnc(-c3ccccc3C(F)(F)F)n2)cc1` [Compound 31, 4-[2-(2-Trifluoromethyl-phenyl)-pyrimidin-4-yl]-benzoic acid], the melting point fell in the range of 251 to 252 °C.
In the case of `O=C(O)c1ccc(-c2nccc(-c3ccc(Br)cc3)n2)cc1` [Compound 33, 4-[4-(4-Bromo-phenyl)-pyrimidin-2-yl]-benzoic acid], the melting point lay in the range of 302 to 305 °C.
Turning to `O=C(O)c1ccc(-c2nccc(-c3ccc(OC(F)(F)F)cc3)n2)cc1` [Compound 34, 4-[4-(4-Trifluoromethoxy-phenyl)-pyrimidin-2-yl]-benzoic acid], the melting point is 234 to 236 °C.
The same measure for `Cc1ccc(-c2ccnc(-c3ccc(C(=O)O)cc3)n2)cc1` [Compound 35, 4-(4-p-Tolyl-pyrimidin-2-yl)-benzoic acid]: 287 to 289 °C.
The same measure for `CC(C)c1ccc(-c2ccnc(-c3ccc(C(=O)O)cc3)n2)cc1` [Compound 36, 4-[4-(4-Isopropyl-phenyl)-pyrimidin-2-yl]-benzoic acid]: 243 to 245 °C.
The same measure for `COc1ccc(-c2ccnc(-c3ccc(C(=O)O)cc3)n2)cc1` [Compound 37, 4-[4-(4-Methoxy-phenyl)-pyrimidin-2-yl]-benzoic acid]: 263 to 265 °C.
Turning to `O=C(O)c1ccc(-c2nccc(-c3cccc(F)c3)n2)cc1` [Compound 38, 4-[4-(3-Fluoro-phenyl)-pyrimidin-2-yl]-benzoic acid], the melting point was 249 to 252 °C.
Consider `O=C(O)c1ccc(-c2nccc(-c3ccc(-c4ccccc4)cc3)n2)cc1` [Compound 39, 4-(4-Biphenyl-4-yl-pyrimidin-2-yl)-benzoic acid], for which the melting point lay in the range of 293 to 296 °C.
The same measure for `O=C(O)c1ccc(-c2nccc(-c3ccc4c(c3)OCCO4)n2)cc1` [Compound 40, 4-[4-(2,3-Dihydro-benzo[1,4]dioxin-6-yl)-pyrimidin-2-yl]-benzoic acid]: 272 to 274 °C; for `O=C(O)c1ccc(-c2nccc(-c3ccc(-n4ccnc4)cc3)n2)cc1` [Compound 41, 4-[4-(4-Imidazol-1-yl-phenyl)-pyrimidin-2-yl]-benzoic acid]: above 305 °C; for `O=C(O)c1cccc(-c2nccc(-c3ccc4c(c3)OCCO4)n2)c1` [Compound 42, 3-[4-(2,3-Dihydro-benzo[1,4]dioxin-6-yl)-pyrimidin-2-yl]-benzoic acid]: 239 to 241 °C.
The same measure for `O=C(O)c1cccc(-c2ncnc(-c3ccc(F)cc3)n2)c1` [Compound 44, 3-[4-(4-Fluoro-phenyl)-[1,3,5]triazin-2-yl]-benzoic acid]: 266 to 269 °C.
The same measure for `CCOc1ccc(-c2ncnc(-c3cccc(C(=O)O)c3)n2)cc1` [Compound 45, 3-[4-(4-Ethoxy-phenyl)-[1,3,5]triazin-2-yl]-benzoic acid]: 269 to 272 °C; for `Cc1ccc(-c2ncnc(-c3ccc(C(=O)O)cc3)n2)cc1` [Compound 46, 4-(4-p-Tolyl-[1,3,5]triazin-2-yl)-benzoic acid]: 288 to 290 °C.
For the compound `O=C(O)c1ccc(-c2ncnc(-c3ccc(F)cc3)n2)cc1` [Compound 47, 4-[4-(4-Fluoro-phenyl)-[1,3,5]triazin-2-yl]-benzoic acid], the melting point fell in the range of 295 to 298 °C.
The same measure for `COc1ccc(-c2ncnc(-c3cccc(C(=O)O)c3)n2)cc1` [Compound 48, 3-[4-(4-Methoxy-phenyl)-[1,3,5]triazin-2-yl]-benzoic acid]: 307 to 309 °C; for `O=C(O)c1cccc(-c2ncnc(-c3cccc(F)c3)n2)c1` [Compound 49, 3-[4-(3-Fluoro-phenyl)-[1,3,5]triazin-2-yl]-benzoic acid]: 273 to 276 °C.
Take `COc1ccc(-c2ncnc(-c3ccc(C(=O)O)cc3)n2)cc1` [Compound 53, 4-[4-(4-Methoxy-phenyl)-[1,3,5]triazin-2-yl]-benzoic acid]: the melting point was above 300 °C.
The same measure for `Cc1cnc(-c2cccc(C(=O)O)c2)nc1-c1ccccc1F` [Compound 54, 3-[4-(2-Fluoro-phenyl)-5-methyl-pyrimidin-2-yl]-benzoic acid]: 279 to 281 °C; for `Cc1cc(-c2ccc(F)cc2)nc(-c2cccc(C(=O)O)c2)n1` [Compound 56, 3-[4-(4-Fluoro-phenyl)-6-methyl-pyrimidin-2-yl]-benzoic acid]: 305 to 307 °C.
The same measure for `COc1ccc(-c2ccnc(-c3ccc(C(=O)O)cc3)n2)cc1OC` [Compound 57, 4-[4-(3,4-Dimethoxy-phenyl)-pyrimidin-2-yl]-benzoic acid]: 250 to 252 °C; for `COc1ccc(-c2ccnc(-c3cccc(C(=O)O)c3)n2)cc1OC` [Compound 58, 3-[4-(3,4-Dimethoxy-phenyl)-pyrimidin-2-yl]-benzoic acid]: 240 to 243 °C; for `CN(C)c1ccc(-c2ccnc(-c3ccc(C(=O)O)cc3)n2)cc1` [Compound 59, 4-[4-(4-Dimethylamino-phenyl)-pyrimidin-2-yl]-benzoic acid]: 292 to 295 °C.
`CN(C)c1ccc(-c2ccnc(-c3cccc(C(=O)O)c3)n2)cc1` [Compound 60, 3-[4-(4-Dimethylamino-phenyl)-pyrimidin-2-yl]-benzoic acid] yielded a melting point of 281 to 283 °C.
The same measure for `O=C(O)c1ccc(-c2ccnc(-c3ccccc3OC(F)(F)F)n2)cc1` [Compound 61, 4-[2-(2-Trifluoromethoxy-phenyl)-pyrimidin-4-yl]-benzoic acid]: 258 to 261 °C; for `O=C(O)c1ccc(-c2nccc(-c3cccc(C(F)(F)F)c3)n2)cc1` [Compound 63, 4-[4-(3-Trifluoromethyl-phenyl)-pyrimidin-2-yl]-benzoic acid]: 271 to 273 °C; for `Cc1cccc(-c2ccnc(-c3ccc(C(=O)O)cc3)n2)c1` [Compound 64, 4-(4-m-Tolyl-pyrimidin-2-yl)-benzoic acid]: 220 to 222 °C.
